Here are results for 17 molecules from US20130261154A1 (priority 2010, published 2013).

Each structure is given as a SMILES string.

Holding throughout (format): in vivo
Assay [1] relates to Phytophthora infestans. The conditions noted are these: tomato seedlings; inoculated, 17 h later sprayed to run-off; visual disease rating; test concentration not given.
In a further assay the test system is Plasmopara viticola. Nature of the assay: Test A: grape downy mildew, spray after inoculation of grape seedlings. The settings on record: inoculated, 24 h later sprayed to run-off, visual disease rating, test concentration not given. An excerpt:
General protocol for preparing test suspensions for Test A-C: The test compounds were first dissolved in acetone in an amount equal to 3% of the final volume and then suspended at the desired concentration (in ppm) in acetone and purified water (50/50 mix by volume) containing 250 ppm of the surfactant Trem® 014 (polyhydric alcohol esters). The resulting test suspensions were then used in Tests A-C. Spraying a 40 ppm test suspension to the point of run-off on the test plants was equivalent to a rate of 160 g/ha.
Grape seedlings were inoculated with a spore suspension of Plasmopara viticola (the causal agent of grape downy mildew) and incubated in a saturated atmosphere at 20° C. for 24 h. After a short drying period, the test suspension was sprayed to the point of run-off on the grape seedlings, which were then moved to a growth chamber at 20° C. for 5 days, after which time the grape seedling were placed back into a saturated atmosphere at 20° C. for 24 h. Upon removal, visual disease ratings were made.
Results for Tests A-C are given in Table A. In the table, a rating of 100 indicates 100% disease control and a rating of 0 indicates no disease control (relative to the controls).

Assay [2] has as its system Phytophthora infestans. The settings on record: tomato seedlings; sprayed to run-off, inoculated the following day; visual disease rating; test concentration not given.

For `Cc1cc(C(F)(F)F)nn1CC(=O)N1CCC(c2nc(C3=NOC(CCOc4ccccc4I)C3)cs2)CC1` (stereo not drawn) [Compound 1], the “Test C disease control rating (100 = 100% disease control, 0 = no disease control relative to the controls)” value in the assay with Phytophthora infestans [1] came to 91%. Also, the “Test A disease control rating (100 = 100% disease control, 0 = no disease control relative to the controls)” value with Plasmopara viticola was determined as 86%. Also, the “Test B disease control rating (100 = 100% disease control, 0 = no disease control relative to the controls)” value with Phytophthora infestans [2] was 99%.

Consider `Cc1cc(C(F)(F)F)nn1CC(=O)N1CCC(c2nc(C3=NOC(CCOc4c(F)cccc4F)C3)cs2)CC1` (stereo not drawn) [Compound 2, 1-[4-[4-[5-[2-(2,6-difluorophenoxy)ethyl]-4,5-dihydro-3-isoxazolyl]-2-thiazolyl]-1-piperidinyl]-2-[5-methyl-3-(trifluoromethyl)-1H-pyrazol-1-yl]ethanone], for which, in the assay on Phytophthora infestans [1], the “Test C disease control rating (100 = 100% disease control, 0 = no disease control relative to the controls)” value came to 99%. Also, the “Test A disease control rating (100 = 100% disease control, 0 = no disease control relative to the controls)” value with Plasmopara viticola is 96%. Besides, the “Test B disease control rating (100 = 100% disease control, 0 = no disease control relative to the controls)” value with Phytophthora infestans [2] is recorded as 100%.

For `Cc1cc(C(F)(F)F)nn1CC(=O)N1CCC(c2nc(C3=NOC(COCN4C(=O)c5ccccc5C4=O)C3)cs2)CC1` (stereo not drawn) [Compound 3, 2-[[[4,5-dihydro-3-[2-[1-[2-[5-methyl-3-(trifluoromethyl)-1H-pyrazol-1-yl]acetyl]-4-piperidinyl]-4-thiazolyl]-5-isoxazolyl]methoxy]methyl]-1H-isoindole-1,3(2H)-dione], the “Test C disease control rating (100 = 100% disease control, 0 = no disease control relative to the controls)” value in the assay with Phytophthora infestans [1] turned out to be 46%. In addition, the “Test A disease control rating (100 = 100% disease control, 0 = no disease control relative to the controls)” value in the assay with Plasmopara viticola was determined as 40%. Also, the “Test B disease control rating (100 = 100% disease control, 0 = no disease control relative to the controls)” value in the assay with Phytophthora infestans [2] came to 95%.

Consider `Cc1cc(C(F)(F)F)nn1CC(=O)N1CCC(c2nc(C3=NOC(CC(=O)NCc4c(F)cccc4F)C3)cs2)CC1` (stereo not drawn) [Compound 4, N-[(2,6-difluorophenyl)methyl]-4,5-dihydro-3-[2-[1-[2-[5-methyl-3-(trifluoromethyl)-1H-pyrazol-1-yl]acetyl]-4-piperidinyl]-4-thiazolyl]-5-isoxazoleacetamide], for which the “Test C disease control rating (100 = 100% disease control, 0 = no disease control relative to the controls)” value in the assay with Phytophthora infestans [1] is given as 99%. In addition, the “Test A disease control rating (100 = 100% disease control, 0 = no disease control relative to the controls)” value in the assay with Plasmopara viticola amounted to 24%. The “Test B disease control rating (100 = 100% disease control, 0 = no disease control relative to the controls)” value in the assay with Phytophthora infestans [2] came out at 100%.

For the molecule `Cc1cc(C(F)(F)F)nn1CC(=O)N1CCC(c2nc(C3=NOC(CCCN4C(=O)c5ccccc5C4=O)C3)cs2)CC1` (stereo not drawn) [Compound 5], in the assay with Phytophthora infestans [1], the “Test C disease control rating (100 = 100% disease control, 0 = no disease control relative to the controls)” value was determined as 99%. For the same molecule, in the assay on Plasmopara viticola, the “Test A disease control rating (100 = 100% disease control, 0 = no disease control relative to the controls)” value amounted to 67%. The “Test B disease control rating (100 = 100% disease control, 0 = no disease control relative to the controls)” value in the assay on Phytophthora infestans [2] is 100%.

As for `Cc1cc(C(F)(F)F)nn1CC(=O)N1CCC(c2nc(C3=NOC(CC(=O)Nc4c(F)cccc4F)C3)cs2)CC1` (stereo not drawn) [Compound 6], in the assay on Phytophthora infestans [1], the “Test C disease control rating (100 = 100% disease control, 0 = no disease control relative to the controls)” value amounted to 46%. Besides, the “Test A disease control rating (100 = 100% disease control, 0 = no disease control relative to the controls)” value with Plasmopara viticola is given as 0%. Moreover, the “Test B disease control rating (100 = 100% disease control, 0 = no disease control relative to the controls)” value in the assay on Phytophthora infestans [2] was found to be 9%.

With `Cc1cc(C(F)(F)F)nn1CC(=O)N1CCC(c2nc(C3=NOC(CCCn4c(=O)sc5ccc(Cl)cc54)C3)cs2)CC1` (stereo not drawn) [Compound 8, 5-chloro-3-[3-[4,5-dihydro-3-[2-[1-[2-[5-methyl-3-(trifluoromethyl)-1H-pyrazol-1-yl]acetyl]-4-piperidinyl]-4-thiazolyl]-5-isoxazolyl]propyl]-2(3H)-benzothiazolone], in the assay with Phytophthora infestans [1], the “Test C disease control rating (100 = 100% disease control, 0 = no disease control relative to the controls)” value is 0%. In the assay on Plasmopara viticola, the “Test A disease control rating (100 = 100% disease control, 0 = no disease control relative to the controls)” value came to 0%. Further, in the assay on Phytophthora infestans [2], the “Test B disease control rating (100 = 100% disease control, 0 = no disease control relative to the controls)” value is 100%.

As for `Cc1cc(C(F)(F)F)nn1CC(=O)N1CCC(c2nc(C3=NOC(CCON4C(=O)c5ccccc5C4=O)C3)cs2)CC1` (stereo not drawn) [Compound 9], the “Test C disease control rating (100 = 100% disease control, 0 = no disease control relative to the controls)” value in the assay with Phytophthora infestans [1] is 73%. In the assay on Plasmopara viticola, the “Test A disease control rating (100 = 100% disease control, 0 = no disease control relative to the controls)” value turned out to be 0%. For the same molecule, the “Test B disease control rating (100 = 100% disease control, 0 = no disease control relative to the controls)” value in the assay with Phytophthora infestans [2] was found to be 99%.

Take `Cc1cc(C(F)(F)F)nn1CC(=O)N1CCC(c2nc(C3=NOC(COc4c(F)cccc4F)C3)cs2)CC1` (stereo not drawn) [Compound 10]: the “Test C disease control rating (100 = 100% disease control, 0 = no disease control relative to the controls)” value in the assay with Phytophthora infestans [1] was 64%. For the same molecule, the “Test A disease control rating (100 = 100% disease control, 0 = no disease control relative to the controls)” value in the assay on Plasmopara viticola is on record as 0%. For the same molecule, the “Test B disease control rating (100 = 100% disease control, 0 = no disease control relative to the controls)” value in the assay on Phytophthora infestans [2] is 100%.

As for `Cc1cc(C(F)(F)F)nn1CC(=O)N1CCC(c2nc(C3=NOC(CCCOc4c(F)cccc4F)C3)cs2)CC1` (stereo not drawn) [Compound 11], the “Test C disease control rating (100 = 100% disease control, 0 = no disease control relative to the controls)” value in the assay on Phytophthora infestans [1] turned out to be 99%. Besides, the “Test A disease control rating (100 = 100% disease control, 0 = no disease control relative to the controls)” value with Plasmopara viticola came to 100%. In addition, the “Test B disease control rating (100 = 100% disease control, 0 = no disease control relative to the controls)” value in the assay with Phytophthora infestans [2] is given as 100%.

For the molecule `Cc1cc(C(F)(F)F)nn1CC(=O)N1CCC(c2nc(C3=NOC(CCCCOc4c(F)cccc4F)C3)cs2)CC1` (stereo not drawn) [Compound 12], the “Test C disease control rating (100 = 100% disease control, 0 = no disease control relative to the controls)” value in the assay on Phytophthora infestans [1] is on record as 92%. In the assay with Plasmopara viticola, the “Test A disease control rating (100 = 100% disease control, 0 = no disease control relative to the controls)” value is listed as 100%. Also, the “Test B disease control rating (100 = 100% disease control, 0 = no disease control relative to the controls)” value with Phytophthora infestans [2] is on record as 99%.

On to `COc1ccc(OCCC2CC(c3csc(C4CCN(C(=O)Cn5nc(C(F)(F)F)cc5C)CC4)n3)=NO2)c(F)c1` (stereo not drawn) [Compound 13], for which the “Test C disease control rating (100 = 100% disease control, 0 = no disease control relative to the controls)” value in the assay on Phytophthora infestans [1] was found to be 95%. Besides, the “Test A disease control rating (100 = 100% disease control, 0 = no disease control relative to the controls)” value in the assay with Plasmopara viticola was found to be 100%. Moreover, the “Test B disease control rating (100 = 100% disease control, 0 = no disease control relative to the controls)” value in the assay with Phytophthora infestans [2] was 100%.

As to `Cc1cc(C(F)(F)F)nn1CC(=O)N1CCC(c2nc(C3=NOC(CCOc4c(F)cc(C#N)cc4F)C3)cs2)CC1` (stereo not drawn) [Compound 14], in the assay on Phytophthora infestans [1], the “Test C disease control rating (100 = 100% disease control, 0 = no disease control relative to the controls)” value is listed as 73%. In the assay on Plasmopara viticola, the “Test A disease control rating (100 = 100% disease control, 0 = no disease control relative to the controls)” value is on record as 99%. The “Test B disease control rating (100 = 100% disease control, 0 = no disease control relative to the controls)” value in the assay on Phytophthora infestans [2] stood at 100%.

`Cc1cc(C(F)(F)F)nn1CC(=O)N1CCC(c2nc(C3=NOC(CCOc4ccc(C#N)cc4F)C3)cs2)CC1` (stereo not drawn) [Compound 15]: the “Test C disease control rating (100 = 100% disease control, 0 = no disease control relative to the controls)” value in the assay on Phytophthora infestans [1] turned out to be 99%. For the same molecule, in the assay with Plasmopara viticola, the “Test A disease control rating (100 = 100% disease control, 0 = no disease control relative to the controls)” value came to 100%. In addition, in the assay with Phytophthora infestans [2], the “Test B disease control rating (100 = 100% disease control, 0 = no disease control relative to the controls)” value is given as 100%.

Regarding `COc1cc(F)c(OCC2CC(c3csc(C4CCN(C(=O)Cn5nc(C(F)(F)F)cc5C)CC4)n3)=NO2)c(F)c1` (stereo not drawn) [Compound 16], in the assay with Phytophthora infestans [1], the “Test C disease control rating (100 = 100% disease control, 0 = no disease control relative to the controls)” value came to 99%. In the assay on Plasmopara viticola, the “Test A disease control rating (100 = 100% disease control, 0 = no disease control relative to the controls)” value was found to be 99%. In addition, the “Test B disease control rating (100 = 100% disease control, 0 = no disease control relative to the controls)” value in the assay with Phytophthora infestans [2] turned out to be 100%.

Take `COC(=O)c1ccc(OCCC2CC(c3csc(C4CCN(C(=O)Cn5nc(C(F)(F)F)cc5C)CC4)n3)=NO2)c(F)c1` (stereo not drawn) [Compound 17]: the “Test C disease control rating (100 = 100% disease control, 0 = no disease control relative to the controls)” value in the assay on Phytophthora infestans [1] is given as 99%. The “Test A disease control rating (100 = 100% disease control, 0 = no disease control relative to the controls)” value in the assay on Plasmopara viticola is 100%. In the assay with Phytophthora infestans [2], the “Test B disease control rating (100 = 100% disease control, 0 = no disease control relative to the controls)” value was 100%.

As to `COc1cc(F)c(OCCC2CC(c3csc(C4CCN(C(=O)Cn5nc(C(F)(F)F)cc5C)CC4)n3)=NO2)c(F)c1` (stereo not drawn) [Compound 18], the “Test C disease control rating (100 = 100% disease control, 0 = no disease control relative to the controls)” value in the assay on Phytophthora infestans [1] was found to be 17%. For the same molecule, the “Test A disease control rating (100 = 100% disease control, 0 = no disease control relative to the controls)” value with Plasmopara viticola turned out to be 79%. In the assay with Phytophthora infestans [2], the “Test B disease control rating (100 = 100% disease control, 0 = no disease control relative to the controls)” value is given as 71%.
